This note sets out measurements from patent US10112926B2 (priority 2014, dated 2018).

One experiment deals with PI 4-kinase beta (Homo sapiens (Human), UniProt Q9UBF8). To be noted: read-out: Assay D PI4Kβ IC50.
Another experiment deals with Vps34 (Homo sapiens (Human), UniProt Q8NEB9). The note with it: read-out: Assay C VPS34 IC50.

Where a name gives a salt, the structure may show the parent alone.

Chain of PI 4-kinase beta (Q9UBF8 whole entry): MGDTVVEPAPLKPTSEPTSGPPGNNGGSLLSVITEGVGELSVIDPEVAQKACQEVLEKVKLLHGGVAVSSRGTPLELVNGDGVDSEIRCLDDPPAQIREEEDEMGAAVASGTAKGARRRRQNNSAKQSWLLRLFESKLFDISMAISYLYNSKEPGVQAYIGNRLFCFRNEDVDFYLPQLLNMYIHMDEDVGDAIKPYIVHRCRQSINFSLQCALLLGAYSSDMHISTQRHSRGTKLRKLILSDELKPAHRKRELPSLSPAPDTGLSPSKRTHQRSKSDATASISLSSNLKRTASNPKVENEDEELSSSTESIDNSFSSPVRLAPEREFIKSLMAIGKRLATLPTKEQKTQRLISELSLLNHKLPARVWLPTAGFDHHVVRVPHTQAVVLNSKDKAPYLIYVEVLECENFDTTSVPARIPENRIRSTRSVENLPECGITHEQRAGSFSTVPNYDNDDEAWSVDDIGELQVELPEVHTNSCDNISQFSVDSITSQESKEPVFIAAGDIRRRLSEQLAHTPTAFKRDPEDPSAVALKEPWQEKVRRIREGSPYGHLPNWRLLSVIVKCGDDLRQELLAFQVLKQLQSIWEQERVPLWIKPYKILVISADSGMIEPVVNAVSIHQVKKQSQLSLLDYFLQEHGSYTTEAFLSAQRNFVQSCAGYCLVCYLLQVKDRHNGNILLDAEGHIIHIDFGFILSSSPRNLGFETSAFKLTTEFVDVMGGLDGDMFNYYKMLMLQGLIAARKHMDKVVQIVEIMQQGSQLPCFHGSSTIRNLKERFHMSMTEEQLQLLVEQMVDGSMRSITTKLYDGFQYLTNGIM
Chain of Vps34 (Q8NEB9 whole entry): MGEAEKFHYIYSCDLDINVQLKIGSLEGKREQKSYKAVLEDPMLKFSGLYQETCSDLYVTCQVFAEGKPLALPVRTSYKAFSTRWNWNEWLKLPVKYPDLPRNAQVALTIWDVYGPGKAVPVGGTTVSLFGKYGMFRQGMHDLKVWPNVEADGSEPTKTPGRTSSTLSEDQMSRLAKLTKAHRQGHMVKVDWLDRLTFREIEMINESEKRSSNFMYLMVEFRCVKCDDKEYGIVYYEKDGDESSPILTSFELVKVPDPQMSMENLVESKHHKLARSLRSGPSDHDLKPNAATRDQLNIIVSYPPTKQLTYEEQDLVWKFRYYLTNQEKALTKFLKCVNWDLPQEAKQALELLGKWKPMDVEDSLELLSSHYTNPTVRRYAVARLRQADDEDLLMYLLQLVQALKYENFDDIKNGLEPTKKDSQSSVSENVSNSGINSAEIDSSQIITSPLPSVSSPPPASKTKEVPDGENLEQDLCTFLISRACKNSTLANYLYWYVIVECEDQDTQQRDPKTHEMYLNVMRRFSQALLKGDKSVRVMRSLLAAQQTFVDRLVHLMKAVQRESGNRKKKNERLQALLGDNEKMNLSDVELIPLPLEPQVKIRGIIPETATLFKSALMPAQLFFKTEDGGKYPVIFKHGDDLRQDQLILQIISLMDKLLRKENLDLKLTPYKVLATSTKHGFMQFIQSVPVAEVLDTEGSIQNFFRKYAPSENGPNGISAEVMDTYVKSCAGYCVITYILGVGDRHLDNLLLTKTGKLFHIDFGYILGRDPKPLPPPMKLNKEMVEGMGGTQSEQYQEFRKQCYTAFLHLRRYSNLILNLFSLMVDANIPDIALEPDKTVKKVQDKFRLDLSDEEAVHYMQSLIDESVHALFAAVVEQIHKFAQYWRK

Take `Cc1ncc(-c2cc(-c3cc(S(=O)(=O)NCC4COC4)ccc3C)cnc2N)o1` [Example 104.3, 3-(6-amino-5-(2-methyloxazol-5-yl)pyridin-3-yl)-4-methyl-N-(oxetan-3-ylmethyl)benzenesulfon-amide]: the IC50 at PI 4-kinase beta was 4.6 µM; at Vps34, 4.7 µM.

On to `Cc1ncc(-c2cc(-c3cc(S(N)(=O)=O)ccc3C)cnc2N)o1` [Example 33, 3-(6-Amino-5-(2-methyloxazol-5-yl)pyridin-3-yl)-4-methylbenzenesulfonamide], for which the IC50 on PI 4-kinase beta worked out at 4.45 µM; at Vps34, 3.9 µM.

Turning to `Cc1noc(-c2cc(-c3cc(S(=O)(=O)NCC4(O)COC4)ccc3C)cnc2N)n1` [Example 56, 3-(6-Amino-5-(3-methyl-1,2,4-oxadiazol-5-yl)pyridin-3-yl)-N-((3-hydroxyoxetan-3-yl)methyl)-4-methylbenzenesulfonamide], the IC50 on PI 4-kinase beta and on Vps34 was > 10 µM in each case.

As for `Cc1ccc(S(=O)(=O)NCC(C)(C)O)cc1-c1cnc(N)c(-n2cncn2)c1` [Example 81, 3-(6-Amino-5-(1H-1,2,4-triazol-1-yl)pyridin-3-yl)-N-(2-hydroxy-2-methylpropyl)-4-methylbenzenesulfonamide hydrochloride], the IC50 at PI 4-kinase beta is > 9.78 µM; on Vps34, > 9.8 µM.

As to `Cc1nnc(-c2cc(-c3cc(S(=O)(=O)NCC(C)(C)O)ccc3C)cnc2N)s1` [Example 102, 3-(6-amino-5-(5-methyl-1,3,4-thiadiazol-2-yl)pyridin-3-yl)-N-(2-hydroxy-2-methylpropyl)-4-methylbenzenesulfonamide], the results for the IC50 on PI 4-kinase beta and at Vps34 were 8.6 µM and > 10 µM, respectively.

With `Cc1nc(-c2cc(-c3cc(S(=O)(=O)N[C@H]4CC[C@H](O)CC4)ccc3C)cnc2N)cs1` [Example 92, 3-(6-Amino-5-(2-methylthiazol-4-yl)pyridin-3-yl)-N-((1r,4r)-4-hydroxycyclohexyl)-4-methylbenzenesulfonamide], the IC50 at PI 4-kinase beta was 5.1 µM; at Vps34, > 10 µM.

Regarding `Cc1cc(-c2cc(-c3cc(S(=O)(=O)NC[C@@H]4CCOC4)ccc3C)cnc2N)on1` [Example 38, (S)-3-(6-Amino-5-(3-methylisoxazol-5-yl)pyridin-3-yl)-4-methyl-N-((tetrahydrofuran-3-yl)methyl)benzenesulfonamide], the IC50 at PI 4-kinase beta was 3.1 µM; at Vps34, > 10 µM.

Take `Cc1cc(-c2cc(-c3cc(S(=O)(=O)NCC4COC4)ccc3C)cnc2N)on1` [Example 25, 3-(6-Amino-5-(3-methylisoxazol-5-yl)pyridin-3-yl)-4-methyl-N-(oxetan-3-ylmethyl)benzenesulfonamide]: the IC50 on PI 4-kinase beta was 1.3 µM; at Vps34, > 10 µM.

Turning to `Cc1ncc(-c2cc(-c3cc(S(N)(=O)=O)ccc3C)cnc2N)s1` [Example 74, 3-(6-Amino-5-(2-methylthiazol-5-yl)pyridin-3-yl)-4-methylbenzenesulfonamide], the IC50 was determined as 5 µM on PI 4-kinase beta and 2.2 µM on Vps34.

Regarding `Cc1ccc(S(=O)(=O)NCC(C)(C)O)cc1-c1cnc(N)c(-c2ncco2)c1` [Example 94b, 3-(6-amino-5-(oxazol-2-yl)pyridin-3-yl)-N-(2-hydroxy-2-methylpropyl)-4-methylbenzenesulfonamide], the concentration for half-maximal inhibition (IC50) at PI 4-kinase beta was 1.3 µM; at Vps34 it was > 10 µM.

For `Cc1ccc(S(=O)(=O)N[C@H]2CC[C@H](O)CC2)cc1-c1cnc(N)c(-c2cc(C(C)(C)C)no2)c1` [Example 35.2, trans-3-(6-Amino-5-(3-(tert-butyl)isoxazol-5-yl)pyridin-3-yl)-N-(−4-hydroxycyclohexyl)-4-methylbenzenesulfonamide hydrochloride], the figures for the IC50 on PI 4-kinase beta and at Vps34 were 0.63 µM and > 10 µM, respectively.

Turning to `Cc1noc(-c2cc(-c3cc(S(=O)(=O)NC4CC(F)(F)C4)ccc3C)cnc2N)n1` [Example 37.17, 3-(6-Amino-5-(3-methyl-1,2,4-oxadiazol-5-yl)pyridin-3-yl)-N-(3,3-difluorocyclobutyl)-4-methylbenzenesulfonamide], the results for the IC50 at PI 4-kinase beta and on Vps34 were 8.6 µM and > 10 µM, respectively.

On to `Cc1noc(-c2cc(-c3cc(S(=O)(=O)NCC4(CO)COC4)ccc3C)cnc2N)n1` [Example 52, 3-(6-Amino-5-(3-methyl-1,2,4-oxadiazol-5-yl)pyridin-3-yl)-N-((3-(hydroxymethyl)oxetan-3-yl)methyl)-4-methylbenzenesulfonamide], for which the concentration for half-maximal inhibition (IC50) at PI 4-kinase beta and on Vps34 was > 10 µM each time.

Consider `Cc1nc(-c2cc(-c3cc(S(=O)(=O)NCC(C)(C)O)ccc3C)cnc2N)cs1` [Example 59, 3-(6-Amino-5-(2-methylthiazol-4-yl)pyridin-3-yl)-N-(2-hydroxy-2-methylpropyl)-4-methylbenzenesulfonamide], for which the IC50 at PI 4-kinase beta and at Vps34 was > 10 µM in each case.

With `Cc1cc(-c2cc(-c3cc(S(=O)(=O)NC[C@H]4C[C@@H](O)C4)ccc3C)cnc2N)on1` [Example 84, cis-3-(6-Amino-5-(3-methylisoxazol-5-yl)pyridin-3-yl)-N-(((1s,3s)-3-hydroxycyclobutyl)methyl)-4-methylbenzenesulfonamide], the results for the 50% inhibitory concentration (IC50) at PI 4-kinase beta and at Vps34 were 2.65 µM and > 10 µM, respectively.

Take `Cc1nnc(-c2cc(-c3cc(S(=O)(=O)NCCC(C)(C)O)ccc3C)cnc2N)s1` [Example 105, 3-(6-amino-5-(5-methyl-1,3,4-thiadiazol-2-yl)pyridin-3-yl)-N-(3-hydroxy-3-methylbutyl)-4-methylbenzenesulfonamide]: the IC50 at PI 4-kinase beta was 2.9 µM; at Vps34 it was > 10 µM.

As to `Cc1cc(-c2cc(-c3cc(S(=O)(=O)N4CC(CO)C4)ccc3C)cnc2N)on1` [Example 37.12, (1-((3-(6-Amino-5-(3-methylisoxazol-5-yl)pyridin-3-yl)-4-methylphenyl)sulfonyl)azetidin-3-yl)methanol], the half-inhibitory concentration (IC50) was 3.4 µM on PI 4-kinase beta and > 10 µM on Vps34.

For `Cc1noc(-c2cc(-c3cc(S(=O)(=O)NCCC4(O)CCCCC4)ccc3C)cnc2N)n1` [Example 37.31, 3-(6-Amino-5-(3-methyl-1,2,4-oxadiazol-5-yl)pyridin-3-yl)-N-(2-(1-hydroxycyclohexyl)ethyl)-4-methylbenzenesulfonamide], the 50% inhibitory concentration (IC50) at PI 4-kinase beta is 6.2 µM; on Vps34, > 10 µM.

As for `Cc1ccc(S(=O)(=O)NCC(C)(C)O)cc1-c1cnc(N)c(-c2ccn(C)n2)c1` [Example 110, 3-(6-amino-5-(1-methyl-1H-pyrazol-3-yl)pyridin-3-yl)-N-(2-hydroxy-2-methylpropyl)-4-methylbenzenesulfonamide], the concentration for half-maximal inhibition (IC50) on PI 4-kinase beta and on Vps34 was > 10 µM each time.

As for `Cc1cc(-c2cc(-c3cc(S(=O)(=O)NCC4(CO)CCC4)ccc3C)cnc2N)on1` [Example 37.6, 3-(6-Amino-5-(3-methylisoxazol-5-yl)pyridin-3-yl)-N-((1-(hydroxymethyl)cyclobutyl)methyl)-4-methylbenzenesulfonamide], the IC50 on PI 4-kinase beta is 2.2 µM; on Vps34, > 10 µM.

Turning to `Cc1noc(-c2cc(-c3cc(S(=O)(=O)NCC(C)(C)O)ccc3C)cnc2N)n1` [Example 10, 3-(6-Amino-5-(3-methyl-1,2,4-oxadiazol-5-yl)pyridin-3-yl)-N-(2-hydroxy-2-methylpropyl)-4-methylbenzenesulfonamide, hydrochloride salt], the IC50 on PI 4-kinase beta and on Vps34 was > 9.8 µM throughout.

As for `Cc1ncc(-c2cc(-c3cc(S(=O)(=O)NCC4(C)COC4)ccc3C)cnc2N)o1` [Example 69, 3-(6-Amino-5-(2-methyloxazol-5-yl)pyridin-3-yl)-4-methyl-N-((3-methyloxetan-3-yl)methyl)benzenesulfonamide], the values for the IC50 on PI 4-kinase beta and on Vps34 were 2.4 µM and 4.4 µM, respectively.

Consider `Cc1cc(-c2cc(-c3cc(S(=O)(=O)NC4CCOC4=O)ccc3C)cnc2N)on1` (stereo not shown) [Example 19.2, 3-(6-amino-5-(3-methylisoxazol-5-yl)pyridin-3-yl)-4-methyl-N-(2-oxotetrahydrofuran-3-yl)benzene sulfonamide trifluoroacetic acid salt], for which the IC50 on PI 4-kinase beta is 3.7 µM; on Vps34, > 10 µM.

Consider `Cc1cc(-c2cc(-c3cc(S(=O)(=O)N[C@@H]4CCNC(=O)C4)ccc3C)cnc2N)on1` [Example 37.4, (R)-3-(6-Amino-5-(3-methylisoxazol-5-yl)pyridin-3-yl)-4-methyl-N-(2-oxopiperidin-4-yl)benzenesulfonamide], for which the figures for the half-inhibitory concentration (IC50) on PI 4-kinase beta and at Vps34 were 2.4 µM and > 10 µM, respectively.

Consider `Cc1ccc(S(=O)(=O)NCC(C)(C)O)cc1-c1cnc(N)c(-c2cc(C3CC3)no2)c1` [Example 35.3, 3-(6-Amino-5-(3-cyclopropylisoxazol-5-yl)pyridin-3-yl)-N-(2-hydroxy-2-methylpropyl)-4-methylbenzenesulfonamide hydrochloride], for which the IC50 at PI 4-kinase beta was 1.3 µM; at Vps34, > 10 µM.

For the molecule `Cc1cnc(-c2cc(-c3cc(S(=O)(=O)NCCC(C)(C)O)ccc3C)cnc2N)s1` [Example 91, 3-(6-Amino-5-(5-methylthiazol-2-yl)pyridin-3-yl)-N-(3-hydroxy-3-methylbutyl)-4-methylbenzenesulfonamide], the IC50 on PI 4-kinase beta was 0.79 µM; at Vps34, > 10 µM.

As to `Cc1noc(-c2cc(-c3cc(S(=O)(=O)NCC(C)(C)O)c(F)cc3C)cnc2N)n1` [Example 85, 5-(6-Amino-5-(3-methyl-1,2,4-oxadiazol-5-yl)pyridin-3-yl)-2-fluoro-N-(2-hydroxy-2-methylpropyl)-4-methylbenzenesulfonamide], the half-maximal inhibitory concentration (IC50) on PI 4-kinase beta and on Vps34 was > 10 µM in each case.

For `Cc1cc(-c2cc(-c3cc(S(=O)(=O)N[C@@H](C)C4CC4)ccc3C)cnc2N)on1` [Example 19.13, (S)-3-(6-amino-5-(3-methylisoxazol-5-yl)pyridin-3-yl)-N-(1-cyclopropylethyl)-4-methylbenzenesulfon-amide trifluoroacetic acid salt], the IC50 is 1.6 µM at PI 4-kinase beta and > 10 µM on Vps34.

`Cc1ccc(S(=O)(=O)NCCC(C)(C)O)cc1-c1cnc(N)c(-c2cnn(CC(F)(F)F)c2)c1` [Example 3, 3-(6-Amino-5-(1-(2,2,2-trifluoroethyl)-1H-pyrazol-4-yl)pyridin-3-yl)-N-(3-hydroxy-3-methylbutyl)-4-methylbenzenesulfonamide]: the IC50 on PI 4-kinase beta was 1.08 µM; on Vps34, > 9.1 µM.
